Active and inactive are the calls of the source.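 Rule for the calls: active = fitted half-maximal concentration for change in GFP expression of 33 µM or less; inactive = the rest.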

Data on 78 compounds can be found in PubChem BioAssay AID2743 (NMMLSC, 2010).

A short description of the assay: potency of AGP1-GFP expression modulators in yeast, dose response, cell-based, flow cytometry, S. cerevisiae, MLPCN hits (AID 2743). To be noted: S. cerevisiae AGP1-GFP strain, flow cytometry GFP, 3 h; at 33 µM (top of the series).

For `O=C(Nc1nnc(-c2ccc(Cl)cc2)o1)c1ccccc1Br`, the GFP fluorescence (kMESF) was 28.4 kMESF (inactive).
On to `C#CCOCCOCCOCCNc1nc(N2CCN(C(=O)CCCCCCCCCCNC(=O)[C@H](CCCCN)n3cc(C)nn3)CC2)nc(N2CCN(C(=O)CCCCCCCCCCNC(=O)[C@H](CCCN=C(N)N)n3cc(C[C@@H](C)CC)nn3)CC2)n1`, for which the GFP fluorescence (kMESF) was 43.6 kMESF (inactive).
For `Cc1cccnc1Nc1nc(-c2ccccn2)cs1` the value was 31 kMESF (inactive); for `N=C1/C(=C\c2coc3ccccc3c2=O)C(=O)N=C2SC(c3ccncc3)=NN12`, 44.7 kMESF (inactive).
The same measure for `CCCN1CCc2c(sc(NC(=S)NC(=O)c3ccccc3)c2C#N)C1`: 42 kMESF (inactive); for `O=C(CS(=O)c1ccccc1[N+](=O)[O-])Oc1ccc(Br)cc1` (stereo not drawn): 42.8 kMESF (inactive).
The same measure for `CN(c1ccccc1)c1ccc(/C=c2\s/c(=C(/C#N)C(=O)C(C)(C)C)n(Cc3ccco3)c2=O)cc1`: 38 kMESF (inactive); for `O=C(/C=C/c1cccc(Cl)c1)c1nc2ccccc2[nH]1`: 29.7 kMESF (inactive); for `Cc1[nH]n(-c2ncc(-c3ccccc3)s2)c(=O)c1C(c1ccc(Cl)cc1)C(C#N)C#N` (stereo not drawn): 40.6 kMESF (inactive).
Consider `COc1cc(/C=C/[N+](=O)[O-])ccc1O`, for which the GFP fluorescence (kMESF) is 32.3 kMESF (inactive).
For `CS(=O)(=O)c1sc(C#N)c2c1C(=O)CC(c1ccccc1)C2` (stereo not drawn) the value was 38.9 kMESF (inactive).
For `O=C1C(=O)c2ccccc2-c2ccccc21` the value was 17.5 kMESF (inactive); for `COc1cc(SSc2cc(OC)cc([N+](=O)[O-])c2N)c(N)c([N+](=O)[O-])c1`, 48.9 kMESF (inactive); for `CC1(c2ccccc2)ON(c2ccccc2C(F)(F)F)C1=O` (stereo not drawn), 29.4 kMESF (inactive).
As for `O=C(COc1ccccc1)NNC(=S)NC(=O)c1ccccc1`, the GFP fluorescence (kMESF) was 42.7 kMESF (inactive).
The same measure for `O=C(/C=C/c1ccccn1)c1ccc(Br)cc1O`: 20.4 kMESF (inactive); for `Oc1c(CN2CCN(c3ccccc3)CC2)cc(Br)c2cccnc12`: 39 kMESF (inactive).
For `CCN1C(=O)/C(=C\C(=O)c2cccs2)c2cc(Br)ccc21` the value was 45.3 kMESF (inactive).
On to `O=C(/C=C/c1ccc(F)cc1)NC(=S)NNC(=O)c1cnccn1`, for which the GFP fluorescence (kMESF) was 35.8 kMESF (inactive).
For `CCOC(=O)C1=C(O)c2ccccc2C(=O)/C1=C\c1ccc(C)cc1`, the GFP fluorescence (kMESF) was -4.85 kMESF (inactive).
For `O=[N+]([O-])c1cc(Cl)c2cccnc2c1O` the value was 22.6 kMESF (inactive); for `Cc1c(Cc2ccccc2)c(NCCN(C)C)n2c(nc3ccccc32)c1C#N`, 45.4 kMESF (inactive).
The same measure for `O=C(NC(=S)Nc1ccc2oc(=O)ccc2c1)c1cccc(Cl)c1`: 29.8 kMESF (inactive).
The same measure for `CC1=NNC(=O)/C1=C\c1cn(-c2ccccc2)nc1-c1cccs1`: 37.3 kMESF (inactive).
As for `COC(=O)CCC(=O)OC1(C)C(=O)C2=COC(c3ccc(OC)cc3)=CC2=C(Br)C1=O` (stereo not drawn), the GFP fluorescence (kMESF) is 7.85 kMESF (inactive).
The same measure for `O=[N+]([O-])c1ccc(O)c(/C=N/Nc2ccccn2)c1`: 30.3 kMESF (inactive).
With `COc1ccc(N2C(=O)/C(=C/c3cccs3)C(=O)NC2=S)cc1`, the GFP fluorescence (kMESF) is 27.3 kMESF (inactive).
For `O=C1C2C3C=CC(CO)(O3)C2C(=O)N1c1ccccc1-c1ccccc1` (stereo not drawn), the GFP fluorescence (kMESF) was 36.3 kMESF (inactive).
The same measure for `CCN1/C(=C/C(C)=C/c2sc3ccccc3[n+]2CC)Sc2ccccc21`: 47.5 kMESF (inactive).
The same measure for `Cc1ccc(NC(=O)c2cc(N3C(=O)C=CC3=O)ccc2N2CCOCC2)cc1Cl`: 36.2 kMESF (inactive).
For `Cc1cc(C)c(S(=O)(=O)N2CCC(C(=O)NCc3ccc(Cl)cc3Cl)CC2)c(C)c1` the value was 37.4 kMESF (inactive); for `COc1ccc([C@]2(C(C)C)ON(c3ccccc3C(F)(F)F)C2=O)cc1`, 38.8 kMESF (inactive); for `COc1ccc(C(c2c(C)[nH]n(C(N)=S)c2=O)C(C#N)C#N)cc1` (stereo not drawn), 44.2 kMESF (inactive).
In the case of `CC(C)(C)c1nnc(N/N=C/c2cc(Br)ccc2O)n(N)c1=O`, the GFP fluorescence (kMESF) is 34.2 kMESF (inactive).
The same measure for `Nc1ccccc1SC(C[N+](=O)[O-])c1ccccc1` (stereo not drawn): 39.9 kMESF (inactive); for `c1ccc(-c2csc(Nc3cccnc3)n2)nc1`: 32.1 kMESF (inactive).
As for `COc1ccc(C=C2C(=O)c3ccccc3C2=O)cc1O`, the GFP fluorescence (kMESF) is 34.7 kMESF (inactive).
For `C#CCOCCOCCOCCNc1nc(N2CCN(C(=O)CCCCCCCCCCNC(=O)[C@H](CCCCN)n3cc(CCCC(=O)O)nn3)CC2)nc(N2CCN(C(=O)CCCCCCCCCCNC(=O)[C@H](CCCN=C(N)N)n3cc(C[C@@H](C)CC)nn3)CC2)n1` the value was 42.4 kMESF (inactive); for `Cc1ccsc1/C=C1\C(=O)NC(=S)N(C)C1=O`, 20.6 kMESF (inactive).
For `Cc1nc2ccc(NC(=O)c3oc4ccc(F)cc4c3C)cc2s1` the value was 35.7 kMESF (inactive); for `Cc1ccc(/C=C2\C(=O)NC(=S)N(c3ccccc3F)C2=O)s1`, 26.9 kMESF (inactive); for `COc1cccc(C(=O)Nc2nnc(-c3ccc(Cl)cc3)o2)c1`, 34.6 kMESF (inactive).
Consider `Cc1[nH][nH]c(=O)c1C(c1ccc(-c2ccc(Cl)cc2)o1)c1c(C)[nH][nH]c1=O`, for which the GFP fluorescence (kMESF) was 39.2 kMESF (inactive).
For `Cc1ccc(/C=C2\SC(=S)N(CC3CCCO3)C2=O)o1` (stereo not drawn) the value was 42 kMESF (inactive); for `CC(c1ccccc1)N1C(=O)/C(=C/c2ccncc2)SC1=S` (stereo not drawn), 24.4 kMESF (inactive); for `COc1cc(N2C(=O)C=CC2=O)c(OC)cc1Cl`, 33.8 kMESF (inactive).
The same measure for `O=c1c2sc(-c3ccccc3)cc2nc2n1CCC2`: 25 kMESF (inactive).
As for `O=C(OCC(=O)N1CCN(C(=O)c2ccco2)CC1)c1cc(-c2ccc(Cl)c(Cl)c2Cl)nc2ccccc12`, the GFP fluorescence (kMESF) is 50.9 kMESF (inactive).
With `Cc1nn2c(NCc3ccccn3)c3c(nc2c1-c1ccccc1)CCC3`, the GFP fluorescence (kMESF) was 40.6 kMESF (inactive).
For the compound `O=C(/C=C/c1ccccc1)NC(=S)NNC(=O)Cc1cccs1`, the GFP fluorescence (kMESF) was 41.4 kMESF (inactive).
Regarding `CC[C@]1(c2ccccc2C)ON(c2ccccc2C(F)(F)F)C1=O`, the GFP fluorescence (kMESF) was 38.9 kMESF (inactive).
In the case of `Oc1ccc(Br)cc1/C=N/Nc1ccccn1`, the GFP fluorescence (kMESF) was 36.6 kMESF (inactive).
The same measure for `O=c1oc2ccccc2c(O)c1[C@H]1c2ccc(O)cc2Oc2c1c(=O)oc1ccccc21`: 36.3 kMESF (inactive); for `O=C1N(c2ccccc2C(F)(F)F)O[C@@]1(c1ccccc1)C1CCCCC1`: 36.2 kMESF (inactive); for `CC1=CC(=O)C(C(C)C)=C/C1=N/OS(=O)(=O)c1ccccc1`: 36.5 kMESF (inactive).
The same measure for `COc1cc(/C=C2\C(=O)ON=C2c2ccccc2)cc(OC)c1OC`: 32.3 kMESF (inactive); for `O=C1/C(=C\c2ccc(O)c(O)c2)SC(=S)N1Cc1ccccc1`: 10.8 kMESF (inactive); for `C#CCOc1c(Br)cc(/C=C2/C(=O)ON=C2C)cc1OC`: 27.6 kMESF (inactive).
In the case of `CC1=C(C)/C(=N\OS(=O)(=O)c2ccc(C)cc2)C=CC1=O`, the GFP fluorescence (kMESF) is 31.9 kMESF (inactive).
Take `Cc1ccc(C(=O)Oc2oc(-c3ccco3)nc2C=Nc2ccc(Cl)cc2)cc1`: the GFP fluorescence (kMESF) is 35 kMESF (inactive).
The same measure for `Cc1cccc(N=Nc2ccc(O)c3ncccc23)c1`: 40.1 kMESF (inactive); for `CCCCNc1c2c3c(cccc3n(C)c1=O)C(=O)c1ccccc1-2`: 36.3 kMESF (inactive); for `CCOC(=O)c1ccc(N=Cc2nc(-c3ccccc3)oc2OC(C)=O)cc1`: 33.5 kMESF (inactive).
The same measure for `CSC1=NS(=O)(=O)c2c(C)nn(C)c2S1`: 45.6 kMESF (inactive); for `CC(C)(C)c1cc(C(c2cccnc2)N2CCN(CCO)CC2)cc(C(C)(C)C)c1O` (stereo not drawn): 42.2 kMESF (inactive).
The same measure for `O=C1NC(=O)C(=Cc2ccc(-c3ccc(Cl)cc3)o2)C(=O)N1`: 22.3 kMESF (inactive); for `COc1ccc(C(=O)NC(=S)NNC(=O)c2cnccn2)cc1`: 42.8 kMESF (inactive); for `Cc1[nH][nH]c(=O)c1C(c1ccc(-c2ccc(Cl)c(Cl)c2)o1)c1c(C)[nH][nH]c1=O`: 43.7 kMESF (inactive).
Turning to `Oc1c(CN2CCN(c3ccc(F)cc3)CC2)cc(Cl)c2cccnc12`, the GFP fluorescence (kMESF) was 41.8 kMESF (inactive).
For `O=C(COc1c(Br)cc(Br)c2cccnc12)N1CCc2ccccc2C1` the value was 28.6 kMESF (inactive); for `Cc1cc(NC(c2ccc(Cl)cc2)c2ccc3cccnc3c2O)no1` (stereo not drawn), 34 kMESF (inactive); for `O=C1c2cccc3c([N+](=O)[O-])ccc(c23)C(=O)N1c1ccccn1`, 35.2 kMESF (inactive).
As to `Cc1ccc(-c2nc(N)c3c(-c4ccc(C)cc4)nn(C(C)(C)C)c3n2)cc1`, the GFP fluorescence (kMESF) was 38.4 kMESF (inactive).
For `O=C(COc1ccc(F)cc1Cl)Nc1nc(-c2ccccn2)cs1` the value was 33.9 kMESF (inactive); for `CCN(CC)c1ccc2cc(-c3nc(-c4ccc(OC)cc4)cs3)c(=O)oc2c1`, 40.6 kMESF (inactive); for `CN(C)NC(=S)Nc1ccc(S(=O)(=O)N2CCCCC2)cc1`, 40.4 kMESF (inactive).
For the compound `Cc1nn(C)c(C)c1N1C(=O)c2cccc3c(Br)ccc(c23)C1=O`, the GFP fluorescence (kMESF) is 40.8 kMESF (inactive).
Turning to `CC(=O)NN1C(=O)/C(=C/c2ccc(Br)o2)SC1=S`, the GFP fluorescence (kMESF) was 40.5 kMESF (inactive).
